The record followed here is patent publication US6656690B2, “Mass spectrometric methods for biomolecular screening” (priority 1998, dated 2003).

In general, Kd refers to the concentration at which binding is half-saturated.

One assay concerns 18S A site model. Nature of the assay: ESI-FTICR mass spectrometric (MASS) binding assay, mass-tagged 18S A-site 27-mer RNA model. As to conditions: aminoglycosides 500 nM each, mixture with untagged 16S and tagged 18S. On the set-up: species or system eukaryotic. How it is done:
The ESI-FTICR mass spectrum depicted in FIG. 26 was acquired from a […] mixture of untagged 16S and tagged 18S in the presence of an equimolar mixture of five aminoglycosides. It is to be understood that other biomolecules may be used in place of the aminoglycosides. The aminoglycosides have been selected from two classes of 2-deoxystreptamines: 4,5-disubstituted (paromomycin, and lividomycin), and 4,6-disubstituted (tobramycin, sisomicin, and bekanamycin), present at 500 nM each. Complexes corresponding to 1:1 binding of individual aminoglycosides were observed between 16S and all members of the aminoglycoside mixture, with the apparent affinities estimated from the abundances of the respective complexes differing substantially. Signal intensities from the complexes with paromomycin (m/z 1925.572) and lividomycin (m/z 1954.790) are consistent with MS-measured dissociation constants of 110 nM and 28 nM, respectively. The intensities of 16S complexes with tobramycin (m/z 1895.960), bekanamycin (m/z 1899.171), and sisomicin (m/z 1891.972) were reduced, consistent with solution dissociation constants of […]. Wang, et al., Biochemistry, 1997, 36, 768-779. […] The average mass measurement error obtained for the complexes in FIG. 26 is 2.1 ppm when m/z differences are measured between the most abundant (4 ^13C) isotope peak of 16S and each complex. […]

The next assay concerns the target 16S A site 27mer RNA. Nature of the assay: ESI-FTICR mass spectrometric (MASS) binding assay, 16S A-site 27-mer RNA model. Also noted: species or system prokaryotic. How it is done: The ESI-FTICR mass spectrum depicted in FIG. 26 was acquired from a […] mixture of untagged 16S and tagged 18S in the presence of an equimolar mixture of five aminoglycosides. It is to be understood that other biomolecules may be used in place of the aminoglycosides. The aminoglycosides have been selected from two classes of 2-deoxystreptamines: 4,5-disubstituted (paromomycin, and lividomycin), and 4,6-disubstituted (tobramycin, sisomicin, and bekanamycin), present at 500 nM each. Complexes corresponding to 1:1 binding of individual aminoglycosides were observed between 16S and all members of the aminoglycoside mixture, with the apparent affinities estimated from the abundances of the respective complexes differing substantially. Signal intensities from the complexes with paromomycin (m/z 1925.572) and lividomycin (m/z 1954.790) are consistent with MS-measured dissociation constants of 110 nM and 28 nM, respectively. The intensities of 16S complexes with tobramycin (m/z 1895.960), bekanamycin (m/z 1899.171), and sisomicin (m/z 1891.972) were reduced, consistent with solution dissociation constants of […]. Wang, et al., Biochemistry, 1997, 36, 768-779. […] The spectrum is calibrated using multiple isotope peaks of the (M-5H^+)^5− and (M-4H^+)^4− charge states of the free RNA as internal mass standards which brackets the m/z range in which complexes are observed. The average mass measurement error obtained for the complexes in FIG. 26 is 2.1 ppm when m/z differences are measured between the most abundant (4 ^13C) isotope peak of 16S and each complex. This post calibration scheme is easily automated which enables rapid, high precision mass measurements of affinity selected ligands against multiple targets in a high throughput mode.
A preferred first step of MASS screening involves mixing the RNA target (or targets) with a combinatorial library of ligands designed to bind to a specific site on the target molecule(s). Specific noncovalent complexes formed in solution between the target(s) and any library members are transferred into the gas phase and ionized by ESI. As described herein, from the measured mass difference between the complex and the free target, the identity of the binding ligand can be determined. The dissociation constant of the complex can be determined in two ways: if a ligand with a known binding affinity for the target is available, a relative Kd can be measured by using the known ligand as an internal control and measuring the abundance of the unknown complex to the abundance of the control, alternatively, if no internal control is available, Kd's can be determined by making a series of measurements at different ligand concentrations and deriving a Kd value from the “titration” curve.
Electrospray ionization Fourier transform ion cyclotron resonance mass spectrometry was performed on a solution containing […] 16S RNA (the 27-mer construct shown in FIG. 24) and 500 nM paromomycin is depicted in FIG. 13. A 1:1 complex was observed between the paromomycin and the RNA consistent with specific aminoglycoside binding at the A-site. The insets show the measured and calculated isotope envelopes of the (M-5H+)5− species of the free RNA and the RNA-paromomycin complex. High precision mass measurements were acquired using isotope peaks of the (M-5H+)^5− and (M-4H^+)^4− charge states of the free RNA as internal mass standards and measuring the m/z difference between the free and bound RNA.
ESI-MS measurements of a solution containing a fixed concentration of RNA at different concentrations of ligand were obtained. By measuring the ratio of bound:unbound RNA at varying ligand concentrations, the Kd was determined by 1/slope of the “titration curve”. The MS derived value of 110 nM is in good agreement with previously reported literature value of 200 nM. […]

Consider `NC[C@@H]1O[C@H](O[C@H]2[C@@H](O)[C@H](O[C@@H]3[C@@H](O)[C@H](N)C[C@H](N)[C@H]3O[C@H]3O[C@H](CO)[C@@H](O)[C@H](O)[C@H]3N)O[C@@H]2CO)[C@H](N)[C@@H](O)[C@@H]1O` [paromomycin], for which the “complexes observed with 18S (in words)” value in the assay with 18S A site model is reported as “complete absence of complexes”. Further, the Kd on 16S A site 27mer RNA (ESI-FTICR MS, 16S A site 27mer, read-out: MS-measured dissociation constant (KD)) came to 0.11 µM. Further, the “complexes observed with 16S (in words)” value with 16S A site 27mer RNA (aminoglycosides 500 nM each, mixture with untagged 16S and tagged 18S) is 1:1 complex and High affinity complexes.
